Patent publication US20090252751A1, “Immune adjuvant comprising ubiquinone” (priority 2007, published 2009)

How the values were obtained:
Assay type in all cases: in vivo
[1] = system: mice; assay: Production amount of antibody in mice by ELISA with CoQ2, CoQ4, CoQ6 or CoQ10 as immunoadjuvant (Test Example 3); conditions: used as immunoadjuvant together with antigenic substance; serum sample on the 25th day; ELISA absorbance (FIG. 3)
Method: The following test was carried out according to the procedure of Text example 1 by using ELISA to confirm the amount of antibody in mice produced upon the administration of coenzyme Q2 (n=2; CoQ2), coenzyme Q4 (n=4; CoQ4), coenzyme Q6 (n=6; CoQ6) or coenzyme Q10 (n=10; CoQ10) together with an antigenic substance. The case where only an antigenic substance had been administered was selected as a reference example in the test.
As a result, the average of the absorbance for the serum sample on the 25th day from the start of the test in each group was as shown in FIG. 3.

[2] = system: Balb/c mice; assay: Measurement of IgG1/IgG2 ratio in blood sample as index of Th2/Th1 balance (Test Example 2)
Method: The blood sample collected on the 25th day from the start of the test was provided, and the IgG1/IgG2 ratio was measured as an index of Th2/Th1 balance.
Further, a blood sample obtained by inoculating only the antigenic substance by intraperitoneal administration instead of the dermal administration at the same time as in the administration schedule in Test Example 1 was used as a control blood sample for comparison.
The IgG1/IgG2 ratio was measured with a Mouse Monoclonal Antibody Isotyping Reagents kit (SIGMA).
Specifically, a mouse serum was diluted with PBS by a factor of 1000 to give a solution. The solution (100 μL) was added to wells in a plate and was incubated at 37° C. for one hr. Next, each well was washed three times with PBS, and 100 μL of isotyping specific reagents (reagents containing IgA, IgG1, IgG2a, and IgG2b), which had been diluted by a factor of 1000, were added to the wells followed by incubation at room temperature for 30 min. Each well was washed three times with PBST. A peroxidase labelled […] (manufactured by SIGMA) (100 μL), which had been diluted with PBST by a factor of 5000, was added to the wells, and the wells were allowed to stand at room temperature for one hr. The wells were then washed three times with PBST. […] For each well, the absorbance was measured with Multiscan Ascent (manufactured by Thermo Labsystems, wave length 405 nm).

[3] = system: Balb/c mice; assay: Production amount of antibody in mouse serum by ELISA after dermal administration of antigenic substance with immunoadjuvant (Test Example 1)

| Compound | production amount of the antibody compared with the case where only the antigenic substance was administered [1] | other results |
| --- | --- | --- |
| COC1=C(OC)C(=O)C(C/C=C(\C)CCC=C(C)C)=C(C)C1=O [coenzyme Q2] | larger | – |
| COC1=C(OC)C(=O)C(C/C=C(\C)CC/C=C(\C)CC/C=C(\C)CCC=C(C)C)=C(C)C1=O [coenzyme Q4] | larger | – |
| COC1=C(OC)C(=O)C(C/C=C(\C)CC/C=C(\C)CC/C=C(\C)CC/C=C(\C)CC/C=C(\C)CCC=C(C)C)=C(C)C1=O [coenzyme Q6] | larger | – |
| COC1=C(OC)C(=O)C(C/C=C(\C)CC/C=C(\C)CC/C=C(\C)CC/C=C(\C)CC/C=C(\C)CC/C=C(\C)CC/C=C(\C)CC/C=C(\C)CC/C=C(\C)CCC=C(C)C)=C(C)C1=O [coenzyme Q10] | larger | IgG1/IgG2 ratio (given as average of the absorbance) ([2]; dermal administration of the antigenic substance together with adjuvant, blood sample on the 25th day): 2.28; average±standard error of the absorbance (amount of produced antibody, ELISA) ([3]; dermal administration (tape preparation), serum sample on the 25th day from the start of the test, serum diluted 1000-fold, 405 nm, n=4): 0.670±0.033 |
| cholera toxin [reference compound] | – | IgG1/IgG2 ratio (given as average of the absorbance) ([2]; mouse, in vivo): 1.46; average±standard error of the absorbance (amount of produced antibody, ELISA) ([3]; mouse, in vivo): 0.551±0.202 |
